Reference: ChEMBL document CHEMBL1671699, “Steady-state intrapulmonary pharmacokinetics and pharmacodynamics of posaconazole in lung transplant recipients” (Antimicrob Agents Chemother, 2010)

Assays:
[1] = Ratio of AUC (0 to 12 hrs) in lung transplant recipient epithelial lining fluid to MIC90 for Aspergillus spp.; type: functional
[2] = Drug level in lung transplant recipient plasma at 400 mg, po every 12 hrs after 8 hrs by LS/MS analysis; type: ADME, organism-based; details: human, read-out: Drug uptake
[3] = Ratio of drug level in lung transplant human recipient epithelial lining fluid to plasma at 400 mg, po every 12 hrs after 24 hrs by LS/MS analysis; type: ADME, organism-based
[4] = Ratio of AUC (0 to 12 hrs) in lung transplant recipient plasma to MIC90 for Aspergillus spp.; type: functional
[5] = Drug level in lung transplant recipient plasma at 400 mg, po every 12 hrs after 12 hrs by LS/MS analysis; type: ADME, organism-based; details: human, read-out: Drug uptake
[6] = AUC (0 to 12 hrs) in lung transplant recipient epithelial lining fluid at 400 mg, po every 12 hrs by LC/MS analysis; type: ADME, organism-based; parameters: time < 12 hr, dose 400 mg, route oral; details: human, in vivo
[7] = Ratio of drug level in lung transplant human recipient epithelial lining fluid to plasma at 400 mg, po every 12 hrs after 8 hrs by LS/MS analysis; type: ADME, organism-based
[8] = Drug level in lung transplant recipient alveolar cell at 400 mg, po every 12 hrs after 3 hrs by LS/MS analysis; type: ADME, organism-based, Pneumocyte; details: human, alveolar cells, read-out: Drug uptake
[9] = Ratio of drug level in lung transplant human recipient alveolar cell to plasma at 400 mg, po every 12 hrs after 3 hrs by LS/MS analysis; type: ADME, organism-based, Pneumocyte; details: other tissue
[10] = Drug level in lung transplant recipient epithelial lining fluid at 400 mg, po every 12 hrs after 3 hrs by LS/MS analysis; type: ADME, organism-based; details: human, read-out: Drug uptake
[11] = Cmin in lung transplant recipient plasma at 400 mg, po every 12 hrs after 12 hrs by LC/MS analysis; type: ADME, organism-based; details: human, read-out: Cmin
[12] = Drug level in lung transplant recipient epithelial lining fluid at 400 mg, po every 12 hrs after 5 hrs by LS/MS analysis; type: ADME, organism-based; details: human, read-out: Drug uptake
[13] = Drug level in lung transplant recipient epithelial lining fluid at 400 mg, po every 12 hrs after 8 hrs by LS/MS analysis; type: ADME, organism-based; details: human, read-out: Drug uptake
[14] = Ratio of drug level in lung transplant human recipient alveolar cell to plasma at 400 mg, po every 12 hrs after 5 hrs by LS/MS analysis; type: ADME, organism-based, Pneumocyte; details: other tissue
[15] = Ratio of Cmax in lung transplant recipient epithelial lining fluid after 12 hrs to MIC90 for Aspergillus spp.; type: functional
[16] = Drug level in lung transplant recipient alveolar cell at 400 mg, po every 12 hrs after 5 hrs by LS/MS analysis; type: ADME, organism-based, Pneumocyte; details: human, alveolar cells, read-out: Drug uptake
[17] = Tmax in lung transplant recipient epithelial lining fluid at 400 mg, po every 12 hrs after 12 hrs by LC/MS analysis; type: ADME, organism-based; details: human
[18] = T>MIC90 for Aspergillus spp. infected lung transplant recipient alveolar cell at 400 mg, po every 12 hrs by LS/MS analysis; type: functional, Pneumocyte
[19] = AUC (0 to 24 hrs) in lung transplant recipient epithelial lining fluid at 400 mg, po every 12 hrs by LC/MS analysis; type: ADME, organism-based; parameters: time < 24 hr, dose 400 mg, route oral; details: human, in vivo
[20] = Ratio of AUC (0 to 24 hrs) in lung transplant recipient alveolar cell to MIC90 for Aspergillus spp.; type: functional, Pneumocyte
Plasma [21] = test: AUC (0 to 24 hrs) in lung transplant recipient plasma at 400 mg, po every 12 hrs by LC/MS analysis; type: ADME, organism-based; parameters: dose 400 mg, time < 24 hr, route oral; details: human, in vivo
[22] = AUC (0 to 24 hrs) in lung transplant recipient alveolar cell at 400 mg, po every 12 hrs by LC/MS analysis; type: ADME, organism-based, Pneumocyte; parameters: time < 24 hr, dose 400 mg, route oral; details: human, in vivo
[23] = Drug level in lung transplant recipient epithelial lining fluid at 400 mg, po every 12 hrs after 12 hrs by LS/MS analysis; type: ADME, organism-based; details: human, read-out: Drug uptake
[24] = Ratio of drug level in lung transplant human recipient epithelial lining fluid to plasma at 400 mg, po every 12 hrs after 12 hrs by LS/MS analysis; type: ADME, organism-based
[25] = Cmin in lung transplant recipient alveolar cell at 400 mg, po every 12 hrs after 12 hrs by LC/MS analysis; type: ADME, organism-based, Pneumocyte; details: human, alveolar cells, read-out: Cmin
[26] = AUC (0 to 12 hrs) in lung transplant recipient alveolar cell at 400 mg, po every 12 hrs by LC/MS analysis; type: ADME, organism-based, Pneumocyte; parameters: time < 12 hr, dose 400 mg, route oral; details: human, in vivo
[27] = T>MIC90 for Aspergillus spp. infected lung transplant recipient plasma at 400 mg, po every 12 hrs by LS/MS analysis; type: functional
[28] = Ratio of Cmax in lung transplant recipient plasma after 12 hrs to MIC90 for Aspergillus spp.; type: functional
[29] = Ratio of drug level in lung transplant human recipient epithelial lining fluid to plasma at 400 mg, po every 12 hrs after 3 hrs by LS/MS analysis; type: ADME, organism-based
[30] = Ratio of drug level in lung transplant human recipient alveolar cell to plasma at 400 mg, po every 12 hrs after 8 hrs by LS/MS analysis; type: ADME, organism-based, Pneumocyte; details: other tissue
[31] = Ratio of drug level in lung transplant human recipient epithelial lining fluid to plasma at 400 mg, po every 12 hrs after 5 hrs by LS/MS analysis; type: ADME, organism-based
[32] = Ratio of fCmax in lung transplant recipient plasma after 12 hrs to MIC90 for Aspergillus spp.; type: functional
[33] = Ratio of AUC (0 to 24 hrs) in lung transplant recipient epithelial lining fluid to MIC90 for Aspergillus spp.; type: functional
Plasma [34] = test: AUC (0 to 12 hrs) in lung transplant recipient plasma at 400 mg, po every 12 hrs by LC/MS analysis; type: ADME, organism-based; parameters: dose 400 mg, time < 12 hr, route oral; details: human, in vivo
[35] = Drug level in lung transplant recipient epithelial lining fluid at 400 mg, po every 12 hrs after 24 hrs by LS/MS analysis; type: ADME, organism-based; details: human, read-out: Drug uptake
[36] = Ratio of drug level in lung transplant human recipient alveolar cell to plasma at 400 mg, po every 12 hrs after 24 hrs by LS/MS analysis; type: ADME, organism-based, Pneumocyte; details: other tissue
[37] = Ratio of fAUC (0 to 24 hrs) in lung transplant recipient plasma to MIC90 for Aspergillus spp.; type: functional
[38] = Ratio of fAUC (0 to 12 hrs) in lung transplant recipient plasma to MIC90 for Aspergillus spp.; type: functional
[39] = Tmax in lung transplant recipient plasma at 400 mg, po every 12 hrs after 12 hrs by LC/MS analysis; type: ADME, organism-based; details: human
[40] = Cmax in lung transplant recipient plasma at 400 mg, po every 12 hrs after 12 hrs by LC/MS analysis; type: ADME, organism-based; parameters: dose 400 mg, route oral; details: human
[41] = Drug level in lung transplant recipient plasma at 400 mg, po every 12 hrs after 24 hrs by LS/MS analysis; type: ADME, organism-based; details: human, read-out: Drug uptake
[42] = Ratio of AUC (0 to 12 hrs) in lung transplant recipient alveolar cell to MIC90 for Aspergillus spp.; type: functional, Pneumocyte
[43] = Cmax in lung transplant recipient alveolar cell at 400 mg, po every 12 hrs after 12 hrs by LC/MS analysis; type: ADME, organism-based, Pneumocyte; parameters: dose 400 mg, route oral; details: human, alveolar cells
[44] = Drug level in lung transplant recipient alveolar cell at 400 mg, po every 12 hrs after 24 hrs by LS/MS analysis; type: ADME, organism-based, Pneumocyte; details: human, alveolar cells, read-out: Drug uptake
[45] = Ratio of Cmax in lung transplant recipient alveolar cell after 12 hrs to MIC90 for Aspergillus spp.; type: functional, Pneumocyte
[46] = Drug level in lung transplant recipient alveolar cell at 400 mg, po every 12 hrs after 12 hrs by LS/MS analysis; type: ADME, organism-based, Pneumocyte; details: human, alveolar cells, read-out: Drug uptake
[47] = Drug level in lung transplant recipient plasma at 400 mg, po every 12 hrs after 3 hrs by LS/MS analysis; type: ADME, organism-based; details: human, read-out: Drug uptake
[48] = Drug level in lung transplant recipient plasma at 400 mg, po every 12 hrs after 5 hrs by LS/MS analysis; type: ADME, organism-based; details: human, read-out: Drug uptake
[49] = Ratio of drug level in lung transplant human recipient alveolar cell to plasma at 400 mg, po every 12 hrs after 12 hrs by LS/MS analysis; type: ADME, organism-based, Pneumocyte; details: other tissue
[50] = Tmax in lung transplant recipient alveolar cell at 400 mg, po every 12 hrs after 12 hrs by LC/MS analysis; type: ADME, organism-based, Pneumocyte; details: human, alveolar cells
[51] = T>MIC90 for Aspergillus spp. infected lung transplant recipient epithelial lining fluid at 400 mg, po every 12 hrs by LS/MS analysis; type: functional
[52] = Ratio of AUC (0 to 24 hrs) in lung transplant recipient plasma to MIC90 for Aspergillus spp.; type: functional
[53] = Protein binding in human plasma at 400 mg, po BID by LS/MS analysis; type: ADME, organism-based; details: read-out: PPB
[54] = Drug level in lung transplant recipient alveolar cell at 400 mg, po every 12 hrs after 8 hrs by LS/MS analysis; type: ADME, organism-based, Pneumocyte; details: human, alveolar cells, read-out: Drug uptake
[55] = Cmax in lung transplant recipient epithelial lining fluid at 400 mg, po every 12 hrs after 12 hrs by LC/MS analysis; type: ADME, organism-based; parameters: dose 400 mg, route oral; details: human

CC[C@@H]([C@H](C)O)n1ncn(-c2ccc(N3CCN(c4ccc(OC[C@@H]5CO[C@@](Cn6cncn6)(c6ccc(F)cc6F)C5)cc4)CC3)cc2)c1=O [POSACONAZOLE]
Ratio [1]: 18.42
concentration at 8 h [2]: 810 ng/mL
Kp at 24 h [3]: 0.68
Ratio [4]: 19.95
concentration at 12 h [5]: 930 ng/mL
AUC [6]: 11.21 µg/h/mL
Kp at 8 h [7]: 0.9
concentration at 3 h [8]: 55400 ng/mL
Ratio [9]: 40.7
concentration at 3 h [10]: 1100 ng/mL
concentration at 12 h [11]: 810 ng/mL
concentration at 5 h [12]: 1300 ng/mL
concentration at 8 h [13]: 1000 ng/mL
Ratio [14]: 27.3
Ratio [15]: 2.6
concentration at 5 h [16]: 31300 ng/mL
Tmax [17]: 5.3 h
T>MIC90 [18]: 24 h
AUC [19]: 22.42 µg/h/mL
Ratio [20]: 2324
AUC (Plasma [21]): 21.98 µg/h/mL
AUC [22]: 1060 µg/h/mL
concentration at 12 h [23]: 1200 ng/mL
Kp at 12 h [24]: 1
concentration at 12 h [25]: 31300 ng/mL
AUC [26]: 530.2 µg/h/mL
T>MIC90 [27]: 24 h
Ratio [28]: 2.5
Kp at 3 h [29]: 0.94
Ratio [30]: 63.6
Kp at 5 h [31]: 0.57
Ratio [32]: 0.04
Ratio [33]: 36.84
AUC (Plasma [34]): 10.99 µg/h/mL
concentration at 24 h [35]: 500 ng/mL
Ratio [36]: 56.4
Ratio [37]: 0.6
Ratio [38]: 0.33
Tmax [39]: 2.8 h
Cmax [40]: 1300 ng/mL
concentration at 24 h [41]: 740 ng/mL
Ratio [42]: 1162
Cmax [43]: 55400 ng/mL
concentration at 24 h [44]: 49600 ng/mL
Ratio [45]: 110.8
concentration at 12 h [46]: 36800 ng/mL
concentration at 3 h [47]: 1300 ng/mL
concentration at 5 h [48]: 1100 ng/mL
Ratio [49]: 53.3
Tmax [50]: 3.2 h
T>MIC90 [51]: 24 h
Ratio [52]: 39.9
fraction unbound [53]: < 0.02
concentration at 8 h [54]: 54700 ng/mL
Cmax [55]: 1300 ng/mL
